Assay results as given in ChEMBL document CHEMBL5370676, “KRAS-Degrading Compounds: A Novel Approach to Treat Cancer by Targeting Both Wild-Type and Mutated KRAS Forms” (ACS Med Chem Lett, 2023).

Legend:
Type in all cases: cell-based
[1] = biological target: T1, von Hippel-Lindau disease tumor suppressor/GTPase KRas (Homo sapiens, UniProt P01116+P40337, G12D); assay: PROTAC activity at E3 ubiquitin ligase/N-terminal HiBit-tagged KRAS G12D mutant (unknown origin) in human GP5d cells assessed as induction of KRAS G12D protein degradation incubated for 18 hrs by Nano-Gio HiBiT assay
T1 sequence (P01116 whole entry G12D, stated change not applied): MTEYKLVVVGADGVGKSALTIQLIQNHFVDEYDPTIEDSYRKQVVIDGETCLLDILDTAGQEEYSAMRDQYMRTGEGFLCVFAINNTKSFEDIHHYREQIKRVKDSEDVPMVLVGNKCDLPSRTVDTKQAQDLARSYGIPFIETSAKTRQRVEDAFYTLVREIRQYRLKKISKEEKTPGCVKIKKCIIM
T1 sequence (P40337 whole entry, stated change not applied): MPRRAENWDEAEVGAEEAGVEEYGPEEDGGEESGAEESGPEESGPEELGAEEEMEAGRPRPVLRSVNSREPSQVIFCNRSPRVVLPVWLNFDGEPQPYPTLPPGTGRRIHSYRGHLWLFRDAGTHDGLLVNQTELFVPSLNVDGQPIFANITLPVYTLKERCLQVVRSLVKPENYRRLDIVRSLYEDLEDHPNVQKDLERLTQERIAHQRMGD

[2] = system: von Hippel-Lindau disease tumor suppressor/GTPase KRas (Homo sapiens), P01116+P40337 [G12D]; assay: PROTAC activity at E3 ubiquitin ligase/N-terminal HiBit-tagged KRAS G12D mutant (unknown origin) in human GP5d cells assessed as induction of KRAS G12D protein degradation incubated for 18 hrs by Nano-Gio HiBiT assay relative to control
Sequence of von Hippel-Lindau disease tumor suppressor/GTPase KRas (Homo sapiens), P01116+P40337 [G12D] (P01116 whole entry G12D): as the sequence (P01116 whole entry G12D, stated change not applied) above
Sequence of von Hippel-Lindau disease tumor suppressor/GTPase KRas (Homo sapiens), P01116+P40337 [G12D] (P40337 whole entry partner): as the sequence (P40337 whole entry, stated change not applied) above

[3] = system: von Hippel-Lindau disease tumor suppressor/GTPase KRas (Homo sapiens), P01116+P40337 [G12D]; assay: PROTAC activity at VHL/HiBit-tagged KRAS G12D mutant (unknown origin) in human GP5d cells assessed as induction of KRAS G12D protein degradation incubated for 18 hrs by Nano-Gio HiBiT assay relative control
[4] = biological target: T1, von Hippel-Lindau disease tumor suppressor/GTPase KRas; assay: PROTAC activity at VHL/N-terminal HiBit-tagged KRAS G12D mutant (unknown origin) in human GP5d cells assessed as induction of KRAS G12D protein degradation incubated for 18 hrs by Nano-Gio HiBiT assay

Row | Compound | DC50 [1] [nM] | Emax [2] [%] | Emax [3] [%] | DC50 [4] [nM]
1 | CC(C)C(C(=O)N1C[C@H](O)C[C@H]1C(=O)NCc1ccc(-n2cncn2)cc1)c1cc(OCCCCN2CCCN(c3nccc(-c4noc([C@@]5(C)CCCc6sc(N)c(C#N)c65)n4)n3)[C@@H](C)C2)no1 (single isomer, unassigned) | 3.3 | 93 | – | –
2 | Cc1ncsc1-c1ccc(CNC(=O)[C@@H]2C[C@@H](O)CN2C(=O)C(c2cc(OCCCCN3CCCN(c4nccc(-c5noc([C@@]6(C)CCCc7sc(N)c(C#N)c76)n5)n4)[C@@H](C)C3)no2)C(C)C)cc1 (some centres undefined) | – | – | 91 | 2.7
3 | Cc1ncsc1-c1ccc([C@H](CO)NC(=O)[C@@H]2C[C@@H](O)CN2C(=O)[C@H](C(C)C)n2cc(OCCCC(C)N3CCCN(c4nccc(-c5noc([C@@]6(C)CCCc7sc(N)c(C#N)c76)n5)n4)[C@@H](C)C3)nn2)cc1 (single isomer, unassigned) | – | – | 94 | 1.4
4 | Cc1ncsc1-c1ccc(CNC(=O)[C@@H]2C[C@@H](O)CN2C(=O)C(c2cc(OCCCCN3CCCN(c4nccc(-c5noc([C@@]6(C)CCCc7sc(N)c(C#N)c76)n5)n4)[C@@H](C)C3)no2)C(C)C)cc1F (some centres undefined) | – | – | 92 | 6.5
5 | Cc1ncsc1-c1ccc(CNC(=O)[C@@H]2C[C@@H](O)CN2C(=O)C(c2cc(OCCCN3CCCN(c4nccc(-c5noc([C@@]6(C)CCCc7sc(N)c(C#N)c76)n5)n4)[C@@H](C)C3)no2)C(C)C)cc1 (some centres undefined) | – | – | 94 | 6.4
6 | Cc1ncsc1-c1ccc([C@H](C)NC(=O)[C@@H]2C[C@@H](O)CN2C(=O)C(C(C)C)n2cc(OCCCCN3CCCN(c4nccc(-c5noc([C@@]6(C)CCCc7sc(N)c(C#N)c76)n5)n4)[C@@H](C)C3)nn2)cc1 (single isomer, unassigned) | – | – | 93 | 1.5
7 | CC(C)C(C(=O)N1C[C@H](O)C[C@H]1C(=O)NCc1ccc(C#N)cc1)c1cc(OCCCCN2CCCN(c3nccc(-c4noc([C@@]5(C)CCCc6sc(N)c(C#N)c65)n4)n3)[C@@H](C)C2)no1 (single isomer, unassigned) | 3.9 | 91 | – | –
8 | CC(C)C(C(=O)N1C[C@H](O)C[C@H]1C(=O)NCc1ccc(-n2ccnc2)cc1)c1cc(OCCCCN2CCCN(c3nccc(-c4noc([C@@]5(C)CCCc6sc(N)c(C#N)c65)n4)n3)[C@@H](C)C2)no1 (single isomer, unassigned) | 6.7 | 93 | – | –
9 | Cc1ncsc1-c1ccc([C@H](NC(=O)[C@@H]2C[C@@H](O)CN2C(=O)[C@H](C(C)C)n2cc(OCCCCN3CCCN(c4nccc(-c5noc([C@@]6(C)CCCc7sc(N)c(C#N)c76)n5)n4)[C@@H](C)C3)nn2)[C@H](C)O)cc1 (single isomer, unassigned) | – | – | 94 | 1.6
10 | Cc1ncsc1-c1ccc(CNC(=O)[C@@H]2C[C@@H](O)CN2C(=O)C(c2cc(OCCCCN3CCCN(c4nccc(-c5cc([C@@]6(C)CCCc7sc(N)c(C#N)c76)on5)n4)[C@@H](C)C3)no2)C(C)C)cc1 (some centres undefined) | – | – | 94 | 4.3
11 | Cc1ncsc1-c1ccc(CNC(=O)[C@@H]2C[C@@H](O)CN2C(=O)C(c2cc(OCCCCN3CCCN(c4nccc(-c5cc([C@@]6(C)CCCc7sc(N)c(C#N)c76)no5)n4)[C@@H](C)C3)no2)C(C)C)cc1 (single isomer, unassigned) | – | – | 92 | 8.9
12 | Cc1ncsc1-c1ccc([C@@H](NC(=O)[C@H]2C[C@H](O)CN2C(=O)[C@@H](C(C)C)n2cc(OCCCN3CCCN(c4nccc(-c5noc([C@@]6(C)CCCc7sc(N)c(C#N)c76)n5)n4)[C@@H](C)C3)nn2)[C@@H](O)C(C)C)cc1 | – | – | 93 | 1.2
